According to patent US10407409B2, “6-(5-hydroxy-1H-pyrazol-1-yl)nicotinamide inhibitors of PHD” (Takeda Pharmaceutical Company Limited, priority 2013, dated 2019):

Key:
[1] = tested on: HIF1a protein in H9c2 rat cardiomyocytes; assay: Cell-based HIF-alpha stabilization assay (inhibition of PHD in cells); conditions: 24 hrs compound incubation, HIF1a protein by ELISA; for EC50: Rattus norvegicus, H9c2, 24 h, read-out: Inhibition of PHD in cells (pEC50) (converted)
How it was run: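 Rat H9c2 cardiomyocytes, cultured 24 h, were treated 24 h with an 11-point serial dilution of compound. HIF1a in whole-cell lysates was quantified by ELISA as % of the maximal desferrioxamine response. EC50 came from curve fitting; EC50pos is the concentration reaching 50% of the desferrioxamine maximum.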

[2] = target: PHD2 enzyme (residues 181-417) (Homo sapiens (Human), UniProt Q9GZT9); assay: Inhibition of PHD enzyme (LC/MS peptide hydroxylation assay); format: biochemical; conditions: PHD2 (residues 181-417) 5 nM, 60 min pre-incubation; -log(IC50), IC50 molar
How it was run: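 PHD2 (5 nM final) preincubated with inhibitor 60 min at RT in 50 mM HEPES, 50 mM KCl, 0.5 mM TCEP, 2 uM FeCl2, 0.1 mg/ml BSA, pH 7.3. Reaction started with biotin-peptide (1 uM), 2-oxoglutarate (2 uM), ascorbate (1 mM), quenched at 60 min; hydroxylated product by LC/MS, reported as pIC50.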

Sequence of PHD2 enzyme (residues 181-417) (Q9GZT9 181-417): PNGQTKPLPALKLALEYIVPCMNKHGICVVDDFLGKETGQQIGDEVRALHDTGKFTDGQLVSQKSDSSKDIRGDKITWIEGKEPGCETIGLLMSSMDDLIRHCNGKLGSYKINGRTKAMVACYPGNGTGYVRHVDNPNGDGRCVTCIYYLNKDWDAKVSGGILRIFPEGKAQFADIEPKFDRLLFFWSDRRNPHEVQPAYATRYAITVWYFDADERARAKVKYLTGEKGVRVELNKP

Row | Compound | PHD Inhibition (pIC50) [2] | EC50 [1] [nM] | Inhibition of PHD in cells (pEC50) [1]
1 | COC[C@H]1CCC[C@H]1NC(=O)c1ccc(-n2ncc(-c3ccc(C#N)cc3C)c2O)nc1 [Example 103, 6-(4-(4-cyano-2-methylphenyl)-5-hydroxy-1H-pyrazol-1-yl)-N-((1R,2S)-2-(methoxymethyl)cyclopentyl)nicotinamide] | 8.1 | 178 | 
2 | COc1cc(-c2cnn(-c3ccc(C(=O)N[C@H]4CC[C@@H](O)CC4)cn3)c2O)ccn1 [Example 166, 6-(5-hydroxy-4-(2-methoxypyridin-4-yl)-1H-pyrazol-1-yl)-N-((1s,4s)-4-hydroxycyclohexyl)nicotinamide] | 7.28 | 437 | 
3 | COC[C@@H](NC(=O)c1ccc(-n2ncc(-c3ccc(C#N)cc3C)c2O)nc1)C(C)C [Example 62, (S)-6-(4-(4-cyano-2-methylphenyl)-5-hydroxy-1H-pyrazol-1-yl)-N-(1-methoxy-3-methylbutan-2-yl)nicotinamide] | 7.14 | 182 | 
4 | COc1cc(-c2cnn(-c3ccc(C(=O)NCC4CCN(C)C4)cn3)c2O)ccn1 (stereo not drawn) [Example 36, 6-(5-hydroxy-4-(2-methoxypyridin-4-yl)-1H-pyrazol-1-yl)-N-((1-methylpyrrolidin-3-yl)methyl)nicotinamide] | 7.4 | 1480 | 
5 | C[C@H]1C[C@@H]1NC(=O)c1ccc(-n2ncc(-c3ccc(C#N)cc3)c2O)nc1 [Example 169, 6-(4-(4-cyanophenyl)-5-hydroxy-1H-pyrazol-1-yl)-N-((1s,2s)-2-methylcyclopropyl)nicotinamide] | 7.22 | 891 | 
6 | N#Cc1ccc(-c2cnn(-c3ccc(C(=O)NCCCn4cccn4)cn3)c2O)cc1 [Example 117, N-(3-(1H-pyrazol-1-yl)propyl)-6-(4-(4-cyanophenyl)-5-hydroxy-1H-pyrazol-1-yl)nicotinamide] | 7.44 | 646 | 
7 | N#Cc1ccc(-c2cnn(-c3ccc(C(=O)NCC(F)(F)F)cn3)c2O)cc1 [Example 77, 6-(4-(4-cyanophenyl)-5-hydroxy-1H-pyrazol-1-yl)-N-(2,2,2-trifluoroethyl)nicotinamide] | 7.03 | 1260 | 
8 | COc1cc(-c2cnn(-c3ccc(C(=O)NCCCN4CCCC4)cn3)c2O)ccn1 [Example 39, 6-(5-hydroxy-4-(2-methoxypyridin-4-yl)-1H-pyrazol-1-yl)-N-(3-(pyrrolidin-1-yl)propyl)nicotinamide] | 7.3 |  | 5.58
9 | COc1cc(-c2cnn(-c3ccc(C(=O)NCCCN4CCOCC4)cn3)c2O)ccn1 [Example 32, 6-(5-hydroxy-4-(2-methoxypyridin-4-yl)-1H-pyrazol-1-yl)-N-(3-morpholinopropyl)nicotinamide] | 7.8 | 813 | 

Now from value to molecule, other results behind:

Row | PHD Inhibition (pIC50) [2] | Compound | EC50 [1] [nM] | Inhibition of PHD in cells (pEC50) [1]
10 | 7.33 | C[C@@H](NC(=O)c1ccc(-n2ncc(-c3ccc(C#N)cc3)c2O)nc1)C1CCOCC1 [Example 172, (R)-6-(4-(4-cyanophenyl)-5-hydroxy-1H-pyrazol-1-yl)-N-(1-(tetrahydro-2H-pyran-4-yl)ethyl)nicotinamide] | 1260 | 
11 | 8.23 | Cc1cc(C#N)ccc1-c1cnn(-c2ccc(C(=O)N3CCCC(N(C)C4CC4)C3)cn2)c1O (stereo in doubt) [Example 386, (S)-4-(1-(5-(3-(cyclopropyl(methyl)amino)piperidine-1-carbonyl)pyridin-2-yl)-5-hydroxy-1H-pyrazol-4-yl)-3-methylbenzonitrile] |  | 6.15
12 | 7.23 | CN(CCCN1CCCCC1)C(=O)c1ccc(-n2ncc(-c3ccc(C#N)cc3)c2O)nc1 [Example 304, 6-(4-(4-cyanophenyl)-5-hydroxy-1H-pyrazol-1-yl)-N-methyl-N-(3-(piperidin-1-yl)propyl)nicotinamide] | 2820 | 
13 | 7.9 | Cc1cc(C#N)ccc1-c1cnn(-c2ccc(C(=O)N[C@H]3CC[C@H](C)CC3)cn2)c1O [Example 183, 6-(4-(4-cyano-2-methylphenyl)-5-hydroxy-1H-pyrazol-1-yl)-N-((1r,4r)-4-methylcyclohexyl)nicotinamide] | 646 | 
14 | 7.62 | CO[C@H]1CC[C@H](NC(=O)c2ccc(-n3ncc(-c4ccc(C#N)cc4)c3O)nc2)CC1 [Example 229, 6-(4-(4-cyanophenyl)-5-hydroxy-1H-pyrazol-1-yl)-N-((1r,4r)-4-methoxycyclohexyl)nicotinamide] | 1050 | 
15 | 7.56 | O=C(NCc1ccccc1)c1ccc(-n2ncc(-c3ccncc3)c2O)nc1 [Example 225, N-benzyl-6-(5-hydroxy-4-(pyridin-4-yl)-1H-pyrazol-1-yl)nicotinamide] | 2340 | 
16 | 8.41 | CCCN1CCN(C(=O)c2ccc(-n3ncc(-c4ccc(C#N)cc4C)c3O)nc2)CC1 [Example 415, 4-(5-hydroxy-1-(5-(4-propylpiperazine-1-carbonyl)pyridin-2-yl)-1H-pyrazol-4-yl)-3-methylbenzonitrile] |  | 6.20
17 | 8.55 | Cc1c(-c2cnn(-c3ccc(C(=O)N4CCC[C@H](N(C)CC(F)F)C4)cn3)c2O)ccc(C#N)c1F [Example 333, (S)-4-(1-(5-(3-((2,2-difluoroethyl)(methyl)amino)piperidine-1-carbonyl)pyridin-2-yl)-5-hydroxy-1H-pyrazol-4-yl)-2-fluoro-3-methylbenzonitrile] | 741 | 
18 | 7.59 | Cc1cc(C#N)ccc1-c1cnn(-c2ccc(C(=O)N(C)CCCN(C)C)cn2)c1O [Example 313, 6-(4-(4-cyano-2-methylphenyl)-5-hydroxy-1H-pyrazol-1-yl)-N-(3-(dimethylamino)propyl)-N-methylnicotinamide] | 1120 | 
19 | 8.46 | COCC[C@@H](C)NC(=O)c1ccc(-n2ncc(-c3ccc(C#N)cc3)c2O)nc1 [Example 357, (R)-6-(4-(4-cyanophenyl)-5-hydroxy-1H-pyrazol-1-yl)-N-(4-methoxybutan-2-yl)nicotinamide] | 2400 | 
20 | 8.40 | CCN1CCN(C(=O)c2ccc(-n3ncc(-c4ccc(C#N)c(F)c4C)c3O)nc2)C[C@H]1C [Example 338, (R)-4-(1-(5-(4-ethyl-3-methylpiperazine-1-carbonyl)pyridin-2-yl)-5-hydroxy-1H-pyrazol-4-yl)-2-fluoro-3-methylbenzonitrile] | 933 | 
21 | 8.4 | Cc1cc(C#N)ccc1-c1cnn(-c2ccc(C(=O)NCCC3CCCO3)cn2)c1O (stereo not drawn) [Example 245, 6-(4-(4-cyano-2-methylphenyl)-5-hydroxy-1H-pyrazol-1-yl)-N-(2-(tetrahydrofuran-2-yl)ethyl)nicotinamide] | 240 | 
